For assay [1], the target named is T1, γ(40)-secretase activity (Homo sapiens, UniProt P49768).
T1 construct: utilizing SH-SY5Y membranes as source of γ-secretase enzyme; endogenous in cells; host or cells: human SH-SY5Y neuroblastoma cell membranes (0.5% CHAPSO)
In words: Exogenous substrate γ-secretase assay, Aβ(40) generation from C100Flag. It counts as biochemical. The note with it: SH-SY5Y membranes, recombinant C100Flag substrate, 0.5% CHAPSO. As to the method: (§1) Exogenous substrate γ-secretase assays—For determination of the potencies of Merck A and B, membranes from SH-SY5Y membranes stored in PBS, 5% glycerol were collected by centrifugation for 30 min at 180,000 g. For in vitro generation of Aβ peptides, 80 μg of membranes were incubated with 7.5 μg of recombinant C100Flag (Li et al., 2000a) in 20 mM HEPES, pH 7.3, 2 mM EDTA, 0.1% bovine serum albumin, 0.5% CHAPSO in 100 μl final volume similar to described methods (Li et al., 2000a) in the presence of increasing compound concentrations. Aβ peptides were quantified by an electrochemiluminescence assay in a 96-well plate format [Origen M-Series™ analyzer, Igen] as described (Beher et al., 2001) using 35 μl of the reaction for Aβ(40) and 50 μl for Aβ(42) detection. Non-specific background was defined by the signal obtained when the assay was performed in the presence of 10 μM of Merck A. For determination of γ-secretase activity in the sucrose gradient fractions, 20 μl of each fraction were incubated with 10 μg of recombinant C100Flag and processed further as above.
(§2) FIG. 1. γ-Secretase inhibitors synthesized for this study and their potencies for inhibition of γ(40)- and γ(42)-secretase activities. […] The reduction of Aβ generation was measured relative to Me2SO-treated controls and error bars indicate the standard error the mean from triplicate experiments.

The target of assay [2] is T2, γ(42)-secretase activity (Homo sapiens, UniProt P49768).
T2 construct: utilizing SH-SY5Y membranes as source of γ-secretase enzyme; endogenous in cells; host or cells: human SH-SY5Y neuroblastoma cell membranes (0.5% CHAPSO)
In words: Exogenous substrate γ-secretase assay, Aβ(42) generation from C100Flag. It counts as biochemical. The note with it: SH-SY5Y membranes, recombinant C100Flag substrate, 0.5% CHAPSO. Here is the method: as §1, §2

For assay [3], the system named is Aβ42, Aβ38 and Aβ40 production. The note with it: cited from earlier work.
For assay [4], the target named is T3, γ-secretase complex (PS1 heterodimer and nicastrin) (Homo sapiens, UniProt P49768).
T3 construct: mainly occurs as a heterodimer of its N- and C-terminal fragment; endogenous in cells; host or cells: human SH-SY5Y neuroblastoma cell membranes, solubilised in 1% CHAPSO and diluted to 0.5%
Briefly: Inhibitor affinity precipitation of CHAPSO-solubilized γ-secretase with biotinylated Merck C, Western blot. It counts as binding. The settings on record: test compound 200 μM, Merck C 0.1 μM, 2.5 mg beads. Here is the method: Western blot analyses—Equal amounts of protein were separated by SDS-polyacrylamide gel electrophoresis and transferred to nitrocellulose membranes. Probing of the membranes was carried out with various antibodies, as indicated in the figures, using the enhanced-chemiluminescence system (ECL, Amersham). Quantitation of bands using a computerized image analysis system (MCID, Imaging Research Inc.) was performed as described previously (Beher et al., 1999).
CHAPSO-solubilization of active γ-secretase and inhibitor affinity precipitations—SH-SY5Y membranes stored in PBS, 5% glycerol were collected by centrifugation for 30 min at 180,000 g. Membrane proteins were solubilized in 1% (w/v) CHAPSO, 50 mM MES-NaOH, pH 6.0, 0.15 M NaCl, 5 mM MgCl2, 1×EDTA-free protease inhibitor mixture (Roche Molecular Biochemicals). Insoluble debris was removed by centrifugation at 180,000 g for 30 min and the resulting supernatant (solubilized γ-secretase) adjusted with the same buffer without CHAPSO to give a final detergent concentration of 0.5% CHAPSO (w/v). Endogenous biotinylated proteins were removed by adding streptavidin-coupled magnetic beads and centrifugation for 2 min at 20,000 g after an incubation for 30 min at 4° C. […]

As to `CC(C)CC(NC(=O)C(Cc1ccccc1)CC(O)C(Cc1ccccc1)NC(=O)OC(C)(C)C)C(=O)NC(Cc1ccccc1)C(N)=O` (stereo not shown) [Merck A], the “IC50 for inhibition of γ(40)-secretase activity (in vitro generation of Aβ(40))” value in assay [1] is listed as “low nanomolar range”. Also, the “IC50 for inhibition of γ(42)-secretase activity (in vitro generation of Aβ(42))” value in assay [2] is recorded as “low nanomolar range”.

Turning to `CC(C)CC(NC(=O)C(Cc1ccccc1)CC(O)C(Cc1ccccc1)NC(=O)OC(C)(C)C)C(=O)NC(Cc1ccccc1)C(=O)NCCCCCNC(=O)CCCCCNC(=O)CCCCCNC(=O)CCCCCN` (stereo not shown) [Merck B], the “IC50 for inhibition of γ(40)-secretase activity (in vitro generation of Aβ(40))” value in assay [1] was “low nanomolar range”. Moreover, the “IC50 for inhibition of γ(42)-secretase activity (in vitro generation of Aβ(42))” value in assay [2] is “low nanomolar range”.

For the compound `CC(C)Cc1ccc(C(C)C(=O)O)cc1` (stereo not shown) [ibuprofen], in assay [3], the “Effect on production of Aβ38” value was “increasing”, the “Effect on production of Aβ40” value is reported as “constant” and the “Effect on production of Aβ42” value is “inhibit”.

`COc1ccc2c(c1)c(CC(=O)O)c(C)n2C(=O)c1ccc(Cl)cc1` [indomethacin]: in assay [3], the “Effect on production of Aβ38” value is on record as “increasing”, the “Effect on production of Aβ40” value is “constant” and the “Effect on production of Aβ42” value is reported as “inhibit”.

On to `CC1=C(CC(=O)O)c2cc(F)ccc2/C1=C\c1ccc(S(C)(=O)=O)cc1` [sulindac sulfone], for which, in assay [4], the “Effect on capture efficiency for PS1 heterodimer and mature nicastrin by Merck C” value is listed as “comparable to the DMSO (Me2O) control”. Also, the “Effect on production of Aβ42” value in assay [3] is listed as “does not lower”.

On to `CSc1ccc(/C=C2/C(C)=C(CC(=O)O)c3cc(F)ccc32)cc1` [sulindac sulphide], for which the “Effect on capture efficiency for PS1 heterodimer and mature nicastrin by Merck C” value in assay [4] was “enhanced”. Also, in assay [3], the “Effect on production of Aβ38” value is “increasing”, the “Effect on production of Aβ40” value was “constant” and the “Effect on production of Aβ42” value was “inhibit”.

Source of the values: patent US7285393B2, “Assay for modulation of γ secretase” (Merck Sharp & Dohme Limited, priority 2002, dated 2007).
